Assays:
[1] = target: Receptor tyrosine-protein kinase erbB-2 (Homo sapiens, UniProt P04626); assay: Selectivity interaction (KinomeScan (DiscoverX)) EUB0000229b ERBB2; settings: at 10 µM
[2] = target: Cyclin-dependent kinase 15 (Homo sapiens) (UniProt Q96Q40); assay: Selectivity interaction (KinomeScan (DiscoverX)) EUB0001079a CDK15; settings: at 1 µM
Aurora kinase B = Aurora kinase B (Homo sapiens, UniProt Q96GD4); settings: at 10 µM
[3] = target: Mitogen-activated protein kinase kinase kinase 9 (Homo sapiens) (UniProt P80192); assay: Selectivity interaction (Kinase panel (Z-LYTE Assay)) EUB0001632a MAP3K9; settings: at 10 µM
Sequence of Mitogen-activated protein kinase kinase kinase 9 (Homo sapiens) (P80192 whole entry, looked up): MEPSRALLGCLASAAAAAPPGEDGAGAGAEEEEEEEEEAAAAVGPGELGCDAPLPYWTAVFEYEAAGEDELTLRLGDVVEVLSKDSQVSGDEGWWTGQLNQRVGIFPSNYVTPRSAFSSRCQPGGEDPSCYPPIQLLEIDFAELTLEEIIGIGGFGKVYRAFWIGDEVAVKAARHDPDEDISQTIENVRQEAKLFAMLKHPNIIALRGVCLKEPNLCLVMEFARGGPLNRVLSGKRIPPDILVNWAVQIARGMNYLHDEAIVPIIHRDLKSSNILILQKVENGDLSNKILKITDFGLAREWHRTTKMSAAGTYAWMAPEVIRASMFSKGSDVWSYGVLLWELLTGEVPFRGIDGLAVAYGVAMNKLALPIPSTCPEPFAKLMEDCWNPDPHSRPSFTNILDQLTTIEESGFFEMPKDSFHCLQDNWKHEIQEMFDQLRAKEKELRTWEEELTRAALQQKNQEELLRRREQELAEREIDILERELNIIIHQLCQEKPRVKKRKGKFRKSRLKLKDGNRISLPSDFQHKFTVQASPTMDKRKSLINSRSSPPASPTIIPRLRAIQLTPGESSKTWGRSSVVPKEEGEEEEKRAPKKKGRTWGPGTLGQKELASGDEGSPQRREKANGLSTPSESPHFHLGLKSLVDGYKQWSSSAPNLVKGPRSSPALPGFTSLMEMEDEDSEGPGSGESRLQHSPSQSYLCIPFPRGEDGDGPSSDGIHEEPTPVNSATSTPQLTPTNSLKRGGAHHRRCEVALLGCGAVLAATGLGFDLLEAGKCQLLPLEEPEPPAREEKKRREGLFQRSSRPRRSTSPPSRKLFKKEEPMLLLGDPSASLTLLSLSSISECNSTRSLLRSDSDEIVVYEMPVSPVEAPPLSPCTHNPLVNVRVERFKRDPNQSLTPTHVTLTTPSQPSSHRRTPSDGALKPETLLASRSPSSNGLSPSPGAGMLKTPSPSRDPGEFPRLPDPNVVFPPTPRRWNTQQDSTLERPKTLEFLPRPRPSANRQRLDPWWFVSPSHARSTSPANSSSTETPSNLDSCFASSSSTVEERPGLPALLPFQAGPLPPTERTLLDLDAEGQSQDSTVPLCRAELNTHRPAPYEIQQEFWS

[4] = target: Serine/threonine-protein kinase PAK 4 (Homo sapiens, UniProt O96013); assay: Selectivity interaction (KinomeScan (DiscoverX)) EUB0000607a PAK4; settings: at 10 µM
Sequence of Serine/threonine-protein kinase PAK 4 (O96013 whole entry, looked up): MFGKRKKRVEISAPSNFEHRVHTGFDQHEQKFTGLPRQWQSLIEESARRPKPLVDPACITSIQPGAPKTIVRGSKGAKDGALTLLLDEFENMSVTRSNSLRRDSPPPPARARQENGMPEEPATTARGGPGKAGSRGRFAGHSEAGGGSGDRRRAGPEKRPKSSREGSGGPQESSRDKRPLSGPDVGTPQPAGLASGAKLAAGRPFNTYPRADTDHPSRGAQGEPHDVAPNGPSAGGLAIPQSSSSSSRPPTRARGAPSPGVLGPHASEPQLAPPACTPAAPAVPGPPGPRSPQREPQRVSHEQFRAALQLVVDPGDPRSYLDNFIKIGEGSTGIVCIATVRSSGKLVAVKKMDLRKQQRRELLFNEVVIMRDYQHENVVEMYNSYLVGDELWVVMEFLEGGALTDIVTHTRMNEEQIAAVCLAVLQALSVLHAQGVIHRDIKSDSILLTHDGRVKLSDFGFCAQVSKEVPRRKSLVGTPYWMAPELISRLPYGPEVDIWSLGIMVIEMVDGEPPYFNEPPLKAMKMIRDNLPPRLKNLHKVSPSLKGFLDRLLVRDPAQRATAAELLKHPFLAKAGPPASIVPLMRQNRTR

[5] = target: Serine/threonine-protein kinase WNK1 (Homo sapiens) (UniProt Q9H4A3); assay: Selectivity interaction (KinomeScan (DiscoverX)) EUB0000607a WNK1; settings: at 10 µM
[6] = target: Homeodomain-interacting protein kinase 1 (Homo sapiens, UniProt Q86Z02); assay: Selectivity interaction (KinomeScan (DiscoverX)) EUB0000595a HIPK1; settings: at 10 µM
[7] = target: T1, Myotonin-protein kinase (Homo sapiens) (UniProt Q09013); assay: Selectivity interaction (Ambit KINOMEscan and KiNATiv profiling in Jurkat cells) EUB0000090b DMPK; assay type: cell-based; settings: at 1 µM
T1 sequence (whole entry): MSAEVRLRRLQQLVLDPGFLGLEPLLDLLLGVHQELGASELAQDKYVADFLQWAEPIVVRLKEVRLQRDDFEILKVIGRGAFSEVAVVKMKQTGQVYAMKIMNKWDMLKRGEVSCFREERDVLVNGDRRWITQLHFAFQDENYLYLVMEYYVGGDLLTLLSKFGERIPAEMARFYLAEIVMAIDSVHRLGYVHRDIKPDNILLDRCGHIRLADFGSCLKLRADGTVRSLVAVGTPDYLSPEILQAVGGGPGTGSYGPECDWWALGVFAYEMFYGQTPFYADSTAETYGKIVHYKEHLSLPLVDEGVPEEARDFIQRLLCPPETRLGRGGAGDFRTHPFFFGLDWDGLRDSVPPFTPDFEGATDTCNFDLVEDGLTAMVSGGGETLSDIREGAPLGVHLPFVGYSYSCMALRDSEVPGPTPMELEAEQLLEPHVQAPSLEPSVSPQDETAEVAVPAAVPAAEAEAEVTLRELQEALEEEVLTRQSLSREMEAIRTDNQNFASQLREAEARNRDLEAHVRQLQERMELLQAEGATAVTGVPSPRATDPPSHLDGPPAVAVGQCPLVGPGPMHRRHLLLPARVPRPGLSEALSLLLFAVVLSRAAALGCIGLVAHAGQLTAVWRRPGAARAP

[8] = test system: Fibroblast growth factor receptor 3 (Homo sapiens), P22607 [G697C]; assay: (§1) Selectivity interaction (Ambit KINOMEscan and KiNATiv profiling in Jurkat cells) EUB0000090b FGFR3; assay type: cell-based; settings: at 1 µM
Sequence of Fibroblast growth factor receptor 3 (Homo sapiens), P22607 [G697C] (P22607 whole entry G697C): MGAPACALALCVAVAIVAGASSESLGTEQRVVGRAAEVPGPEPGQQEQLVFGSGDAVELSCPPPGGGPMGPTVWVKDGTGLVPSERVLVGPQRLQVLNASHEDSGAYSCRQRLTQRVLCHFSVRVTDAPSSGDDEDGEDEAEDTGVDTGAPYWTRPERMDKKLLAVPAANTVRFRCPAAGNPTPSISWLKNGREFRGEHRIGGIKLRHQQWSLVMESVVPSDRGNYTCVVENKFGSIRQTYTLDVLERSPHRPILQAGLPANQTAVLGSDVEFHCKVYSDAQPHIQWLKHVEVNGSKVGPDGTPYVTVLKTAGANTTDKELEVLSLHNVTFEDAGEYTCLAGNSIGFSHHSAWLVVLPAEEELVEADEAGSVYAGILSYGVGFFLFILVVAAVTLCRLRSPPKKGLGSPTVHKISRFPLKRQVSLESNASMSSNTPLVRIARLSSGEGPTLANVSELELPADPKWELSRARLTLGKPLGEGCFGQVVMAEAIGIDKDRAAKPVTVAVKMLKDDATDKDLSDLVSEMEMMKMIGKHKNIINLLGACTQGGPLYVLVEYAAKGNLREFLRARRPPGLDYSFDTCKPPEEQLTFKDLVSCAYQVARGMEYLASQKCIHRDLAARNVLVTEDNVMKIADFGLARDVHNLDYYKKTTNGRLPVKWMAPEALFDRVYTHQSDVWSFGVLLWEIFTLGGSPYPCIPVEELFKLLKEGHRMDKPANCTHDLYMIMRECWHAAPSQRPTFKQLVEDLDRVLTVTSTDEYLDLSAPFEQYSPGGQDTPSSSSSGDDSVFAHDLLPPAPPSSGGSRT

[9] = target: Fibroblast growth factor receptor 3 (Homo sapiens, UniProt P22607); assay: as §1; assay type: cell-based; settings: at 1 µM
Sequence of Fibroblast growth factor receptor 3 (P22607 23-806 limits assumed): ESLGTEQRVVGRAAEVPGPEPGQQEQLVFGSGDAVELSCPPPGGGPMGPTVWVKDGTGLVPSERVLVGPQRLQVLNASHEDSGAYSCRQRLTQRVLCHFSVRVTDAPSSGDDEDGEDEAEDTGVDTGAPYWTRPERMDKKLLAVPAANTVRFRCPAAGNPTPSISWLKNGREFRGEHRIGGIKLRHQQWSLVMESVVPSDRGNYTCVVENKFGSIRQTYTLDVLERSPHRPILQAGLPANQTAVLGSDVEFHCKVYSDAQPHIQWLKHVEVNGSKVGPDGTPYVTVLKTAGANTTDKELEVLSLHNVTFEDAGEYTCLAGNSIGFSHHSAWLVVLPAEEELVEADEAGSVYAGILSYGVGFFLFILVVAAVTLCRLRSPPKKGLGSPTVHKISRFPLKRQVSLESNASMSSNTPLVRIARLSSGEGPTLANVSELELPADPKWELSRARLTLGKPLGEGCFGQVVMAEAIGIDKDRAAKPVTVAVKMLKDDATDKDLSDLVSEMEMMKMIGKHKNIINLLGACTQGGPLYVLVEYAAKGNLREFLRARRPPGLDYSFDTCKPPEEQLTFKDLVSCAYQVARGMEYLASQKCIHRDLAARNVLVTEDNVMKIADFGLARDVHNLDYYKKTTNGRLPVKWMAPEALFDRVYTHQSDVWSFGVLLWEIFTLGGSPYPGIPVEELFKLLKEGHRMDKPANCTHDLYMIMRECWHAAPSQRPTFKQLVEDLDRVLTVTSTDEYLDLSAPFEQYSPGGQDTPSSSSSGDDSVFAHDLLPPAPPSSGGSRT

[10] = target: T2, Mitogen-activated protein kinase kinase kinase kinase 3 (Homo sapiens) (UniProt Q8IVH8); assay: Selectivity interaction (Ambit KINOMEscan and KiNATiv profiling in Jurkat cells) EUB0000090b MAP4K3; assay type: cell-based; settings: at 1 µM
T2 sequence (whole entry): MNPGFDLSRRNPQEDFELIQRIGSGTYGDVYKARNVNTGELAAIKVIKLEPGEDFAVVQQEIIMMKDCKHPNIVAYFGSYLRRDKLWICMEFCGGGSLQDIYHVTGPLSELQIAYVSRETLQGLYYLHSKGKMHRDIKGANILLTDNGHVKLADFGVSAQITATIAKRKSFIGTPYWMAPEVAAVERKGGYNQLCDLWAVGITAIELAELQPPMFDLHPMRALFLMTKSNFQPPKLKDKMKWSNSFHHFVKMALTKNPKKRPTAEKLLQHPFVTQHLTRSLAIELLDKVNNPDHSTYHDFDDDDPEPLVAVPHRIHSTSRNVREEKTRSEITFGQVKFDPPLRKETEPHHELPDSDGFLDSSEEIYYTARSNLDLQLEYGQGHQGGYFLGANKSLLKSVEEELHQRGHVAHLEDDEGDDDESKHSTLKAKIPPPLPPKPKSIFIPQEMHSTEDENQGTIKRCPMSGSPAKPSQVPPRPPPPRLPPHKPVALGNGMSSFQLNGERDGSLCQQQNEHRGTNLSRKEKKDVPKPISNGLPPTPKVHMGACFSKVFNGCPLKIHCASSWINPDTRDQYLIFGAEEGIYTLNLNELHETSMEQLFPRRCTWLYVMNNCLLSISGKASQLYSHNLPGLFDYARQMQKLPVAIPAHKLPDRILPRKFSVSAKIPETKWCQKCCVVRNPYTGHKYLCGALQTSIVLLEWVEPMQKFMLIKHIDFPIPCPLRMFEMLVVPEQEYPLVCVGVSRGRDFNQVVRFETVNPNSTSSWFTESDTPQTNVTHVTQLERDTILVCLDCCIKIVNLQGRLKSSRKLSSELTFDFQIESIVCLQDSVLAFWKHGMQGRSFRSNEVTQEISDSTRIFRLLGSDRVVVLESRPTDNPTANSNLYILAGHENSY

Sequence of Cyclin-dependent kinase 15 (Homo sapiens) (Q96Q40 whole entry): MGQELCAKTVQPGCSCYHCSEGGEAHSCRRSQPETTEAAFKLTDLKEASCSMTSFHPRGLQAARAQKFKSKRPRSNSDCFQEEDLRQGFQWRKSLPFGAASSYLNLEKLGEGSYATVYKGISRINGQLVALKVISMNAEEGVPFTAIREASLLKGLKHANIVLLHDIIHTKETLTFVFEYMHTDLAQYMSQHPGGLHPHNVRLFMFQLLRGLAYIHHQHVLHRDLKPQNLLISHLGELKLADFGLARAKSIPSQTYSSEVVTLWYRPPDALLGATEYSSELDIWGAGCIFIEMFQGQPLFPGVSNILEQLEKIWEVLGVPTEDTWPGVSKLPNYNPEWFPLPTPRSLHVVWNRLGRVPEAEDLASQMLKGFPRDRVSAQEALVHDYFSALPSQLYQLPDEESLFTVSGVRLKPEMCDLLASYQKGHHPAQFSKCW
Sequence of Receptor tyrosine-protein kinase erbB-2 (P04626 whole entry): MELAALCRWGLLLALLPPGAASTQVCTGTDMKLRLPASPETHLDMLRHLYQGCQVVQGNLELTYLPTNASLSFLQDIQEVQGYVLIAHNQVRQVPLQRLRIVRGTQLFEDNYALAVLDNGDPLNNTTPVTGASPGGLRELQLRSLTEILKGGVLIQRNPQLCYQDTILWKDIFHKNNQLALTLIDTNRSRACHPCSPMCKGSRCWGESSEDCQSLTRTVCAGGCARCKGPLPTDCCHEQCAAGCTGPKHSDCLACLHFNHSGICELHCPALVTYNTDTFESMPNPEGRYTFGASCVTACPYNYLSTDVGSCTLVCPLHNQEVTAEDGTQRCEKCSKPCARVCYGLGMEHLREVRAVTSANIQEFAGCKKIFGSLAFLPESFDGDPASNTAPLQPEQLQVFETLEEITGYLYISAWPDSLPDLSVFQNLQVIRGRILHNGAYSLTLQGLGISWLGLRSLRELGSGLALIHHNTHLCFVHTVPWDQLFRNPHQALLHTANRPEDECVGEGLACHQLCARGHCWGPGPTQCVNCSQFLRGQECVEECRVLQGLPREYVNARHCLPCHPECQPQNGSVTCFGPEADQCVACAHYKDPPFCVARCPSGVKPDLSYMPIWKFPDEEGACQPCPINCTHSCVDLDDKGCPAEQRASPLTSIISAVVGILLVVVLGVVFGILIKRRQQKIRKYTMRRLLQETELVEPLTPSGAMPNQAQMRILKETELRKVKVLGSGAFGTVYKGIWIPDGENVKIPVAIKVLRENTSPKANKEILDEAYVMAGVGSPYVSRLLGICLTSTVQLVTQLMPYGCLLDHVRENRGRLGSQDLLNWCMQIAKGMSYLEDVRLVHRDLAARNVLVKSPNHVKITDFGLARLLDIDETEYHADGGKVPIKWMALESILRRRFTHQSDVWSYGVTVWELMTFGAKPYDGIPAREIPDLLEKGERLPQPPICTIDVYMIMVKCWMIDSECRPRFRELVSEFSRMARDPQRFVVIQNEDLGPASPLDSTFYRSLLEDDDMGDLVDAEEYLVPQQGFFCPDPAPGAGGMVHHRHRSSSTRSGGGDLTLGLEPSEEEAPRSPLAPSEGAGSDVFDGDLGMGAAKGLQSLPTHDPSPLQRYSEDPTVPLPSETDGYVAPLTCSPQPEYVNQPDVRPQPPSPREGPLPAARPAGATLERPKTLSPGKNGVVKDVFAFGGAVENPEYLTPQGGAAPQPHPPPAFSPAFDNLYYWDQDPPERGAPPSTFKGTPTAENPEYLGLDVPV

Structure (SMILES): COc1cc(N(C)c2ccnc3ccc(C(F)(F)F)cc23)cc(OC)c1OC
- % binding [1]: 62%

Structure (SMILES): Nc1cnc(N2CCc3cc(S(=O)(=O)Nc4c(F)cc(Cl)cc4F)cc(N4CCCC4=O)c32)nc1 [TP-020n]
- % of control [2]: 80%

Structure (SMILES): Cc1cc([C@@H](C)Nc2ccccc2C(=O)O)c2nc(N3CCOCC3)cc(=O)n2c1 [AZD-6482]
- % of control (Aurora kinase B): 96%

Structure (SMILES): Cn1cc(-n2cnc3c(NCc4nc5cc(Cl)c(Cl)cc5[nH]4)nc(N4CCOCC4)nc32)cn1
- % of control [3]: -5.34%

Structure (SMILES): CNC(=O)Nc1ccc(-c2nc(N3CC4CCC(C3)O4)c3cnn(C4CCC5(CC4)OCCO5)c3n2)cc1
- % of control [4]: 100%
- % of control [5]: 95%

Structure (SMILES): COCC(=O)NC/C=C/c1ccc2ncnc(Nc3ccc(Oc4ccc(C)nc4)c(C)c3)c2c1 [CP-724714]
- % of control [6]: 88%

Structure (SMILES): CN(C)C/C=C/C(=O)Nc1ccc(C(=O)N2CCCC(Nc3ncc(Cl)c(-c4c[nH]c5ccccc45)n3)C2)cc1 (stereo unspecified)
- % of control [7]: 91%
- % of control [8]: 72%
- % of control [9]: 92%
- % of control [10]: 95%

Reference: ChEMBL document CHEMBL5465560, “Selectivity Literature for EUbOPEN Chemogenomic Library” (2024)
